According to US8916600B2, “Phenyl and benzodioxinyl substituted indazoles derivatives” (Astrazeneca AB, priority 2008, dated 2014):
Where two headings read alike, the source gives them in different places.

Assays:
[1] = tested on: AP-1/TRE-activity in ChaGo-K-1 cells transfected with 5×TRE-LacZ; assay: Transrepression Reporter Gene Assay (TRE-LacZ transfected ChaGo-K-1 cells, PMA stimulated); assay type: cell-based, human; conditions: PMA 10 ng/ml, Dexamethasone 10^-6 M set as 100 percent control, read-out: Agonism TRE IC50
Procedure: Transrepression Reporter Gene Assay
The human bronchogenic carcinoma cell-line, ChaGo-K-1 (ATCC: HTB 168), were transfected with 5×TRE-LacZ (clone 16:15:5 s5), i.e. TRE transfected cells, to measure transrepression activity of the selected compounds. Before use, the cells were grown for one to two weeks in selection medium containing 0.7 mg geneticin (G418)/ml medium. The cells were cultured at 37° C., 5% CO2 and 100% humidity in 96 well microtiter plates in RPMI-medium complemented with 10% fetal calf serum, 1% non-essential amino acids and 1% sodium pyruvate. The cells were passaged once weekly.
The TRE transfected cells were seeded in 96 well plates with 25-30 000 cells/well and grown for 72-96 h, to reach about 80% confluence. To stimulate the upregulation of the AP-1/TRE-activity, the cells were stimulated with 10 ng/ml Phorbol Myristate acetate (PMA) 3-5 h prior to addition of compounds. The PMA was present during the whole experiment. The TRE mediated effects (transrepression) in the transfected ChagGo-K-1 cells was measured as downregulation of β-galactosidase activity. The β-galactosidase activity for the transrepression experiments was measured by a fluorometric assay performed in microtiter plates. Cells were washed once in PBS. 180 μl of a reaction mixture containing 5 parts of Z-buffer and one part 4-methylumbelliferyl-β-D-galactosidase (MUG)-solution was then added (150 μl Z-buffer [18 μl 0.6 M Na2HPO4, 12 μl 0.6 M NaH2PO4, 7.2 μl 0.25 M KCl, 18 μl 0.01 M MgSO4, 1.8 μl 10% Triton X-100, 93 μl H2O]+30 μl 3 mM 4-methylumbelliferyl-[…]). After 60 min incubation at 37° C., 70 μl stop buffer was added to each well and the fluorescence was read in a fluorometer (Spectramax Gemini) with emission filter at 460 nm and excitation filter at 360 nm. The TRE activity was calculated as the relative activity compared to cells not treated with compounds. Inhibition of β-galactosidase by the compounds is expressed as percent inhibition compared to Dexamethasone 10^−6 M set as a 100 percent control within each experiment and DMSO 0.1% set as background control. The effect of Dexamethasone is well documented in this system and was therefore chosen as a positive control for comparison of the potency and efficacy of the compounds.

[2] = molecular target: Human Glucocorticoid Receptor (GR) (Homo sapiens (Human), UniProt P04150); assay: Human Glucocorticoid Receptor (GR) radioligand binding assay (competition with 3H-labeled Dexamethasone); conditions: full length GR, 7 nM 3H-dexamethasone, 2 h at room temperature; read-out: GR Hu Bind Filter Mean Control IC50
Human Glucocorticoid Receptor (GR), sequence (P04150 whole entry): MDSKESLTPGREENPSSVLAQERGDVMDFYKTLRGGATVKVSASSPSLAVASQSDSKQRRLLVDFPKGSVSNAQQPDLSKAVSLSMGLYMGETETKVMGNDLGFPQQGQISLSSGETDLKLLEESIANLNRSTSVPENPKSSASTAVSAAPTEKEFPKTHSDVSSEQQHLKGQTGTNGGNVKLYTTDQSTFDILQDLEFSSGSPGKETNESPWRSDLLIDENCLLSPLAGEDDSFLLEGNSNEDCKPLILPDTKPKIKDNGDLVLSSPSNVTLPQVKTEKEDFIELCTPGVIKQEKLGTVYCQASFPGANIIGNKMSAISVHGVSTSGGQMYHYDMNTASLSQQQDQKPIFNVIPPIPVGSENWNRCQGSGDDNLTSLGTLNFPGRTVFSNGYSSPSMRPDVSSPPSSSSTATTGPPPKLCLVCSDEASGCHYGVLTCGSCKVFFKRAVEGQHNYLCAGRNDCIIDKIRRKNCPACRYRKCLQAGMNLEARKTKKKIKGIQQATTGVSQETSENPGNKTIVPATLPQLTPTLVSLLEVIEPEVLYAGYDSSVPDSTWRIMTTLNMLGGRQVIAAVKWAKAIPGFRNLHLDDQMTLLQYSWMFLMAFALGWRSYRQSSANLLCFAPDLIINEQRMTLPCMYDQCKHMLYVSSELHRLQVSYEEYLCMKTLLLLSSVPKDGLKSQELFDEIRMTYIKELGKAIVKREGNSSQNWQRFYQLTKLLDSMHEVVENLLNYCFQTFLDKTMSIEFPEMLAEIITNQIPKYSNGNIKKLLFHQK
Procedure: Human Glucocorticoid Receptor (GR) Assay
The radioligand GR binding assay is based on a competition assay using ^3H-labeled Dexamethasone, Dexamethasone is known to bind in the ligand binding domain of GR and compete for binding with endogenous ligands like e.g. cortisol (Necela, 2003).
In the GR radioligand binding assay, test compounds were serially diluted in semi-log steps (10 concentrations) with a final concentration of 10 μM. Test compounds (1 μL) and controls (1 μL) in 100% DMSO were added to 96 Greiner V-bottom polypropylene plates. 0% control was 6.7% DMSO (final concentration in assay) and 100% control was 6.7 μM Dexamethasone.
The full length GR was diluted to a final concentration of 3.3% (0.495 mg/ml) in assay buffer (20 mM Tris-HCl, 1 mM EDTA, 10% (w/v) Glycerol, 20 mM Sodium molbydate, pH 7.4). 45 μL of GR was added to each well and the plates were incubated for 15 min at room temperature.
^3H-dexamethasone solution was diluted to a concentration of 70 nM in assay buffer (7 nM final assay concentration) and 5 μL was added to each well. The samples were mixed for 5 min using a plate shaker at 700 rpm, before incubation for 2 h at room temperature,
50 μL ice-cold charcoal solution (pH 7.4: 2% Charcoal, 0.2% Dextran T70 in 20 mM Tris-HCl, 1 mM EDTA and 20 mM Sodium molbydate) was'added to each well and the samples were mixed on plate shaker for 5 minutes.
The plate was then centrifuged for 1.5 min at 1500 rpm, the samples (80 μL) were transferred from each well to a filter plate (Millipore, 0.45 μm, MHVBN45) on a vacuum manifold and then collected into new plates (Greiner, 96 well white/transparent, 655095). The filter plate was washed once with 20 μl of water and then 100 μL of scintillation liquid was added to each well and mixed by incubation on plate shaker for 5 min. Radioactivity was measured in a 1450 Microbeta Trilux Reader (Wallac) counting cpm for 2 minutes per well. The data obtained from each replicate experiment were analysed using the software ActivityBase, version 5.4.3 (ID Business Solutions Ltd) and IC50 values were calculated. Ref: Necela, B M, Cidlowski, J A, Trends Pharmacol Sci, 24: 58, 2003

[3] = Homo sapiens, ChaGo-K-1, downregulation of β-galactosidase activity

Structure (SMILES) | IC50 [1, 3] [nM] | IC50 [2] [nM] | IC50 ([1]; downregulation of β-galactosidase activity) [nM]
C[C@H](NC(=O)C(C)(F)F)[C@H](Oc1ccc2c(cnn2-c2cccc(C(=O)N[C@H]3CC[S+]([O-])C3)c2)c1)c1ccc2c(c1)OCOC2 (single isomer, unassigned) [Example 15] | 0.499 | 3.64 | –
CC[C@@H](O)CNC(=O)c1cccc(-n2ncc3cc(O[C@H](c4ccc5c(c4)OCOC5)[C@H](C)NC(=O)C(C)(F)F)ccc32)c1 [Example 11, 3-[5-({(1R,2S)-1-(4H-1,3-benzodioxin-7-yl)-2-[(2,2-difluoropropanoyl)amino]propyl}oxy)-1H-indazol-1-yl]-N-[(2R)-2-hydroxybutyl]benzamide] | 0.517 | 2.15 | –
C[C@H](NC(=O)C(C)(F)F)[C@H](Oc1ccc2c(cnn2-c2cccc(C(=O)N[C@H]3CCS(=O)(=O)C3)c2)c1)c1ccc2c(c1)OCOC2 [Example 4, 3-[5-({(1R,2S)-1-(4H-1,3-benzodioxin-7-yl)-2-[(2,2-difluoropropanoyl)amino]propyl}oxy)-1H-indazol-1-yl]-N-[(3S)-1,1-dioxidotetrahydrothiophen-3-yl]benzamide] | 0.733 | – | –
C[C@H](NC(=O)C(C)(F)F)[C@H](Oc1ccc2c(cnn2-c2cccc(C(=O)N[C@H]3CCC[C@@H]3O)c2)c1)c1ccc2c(c1)OCOC2 [Example 18, 3-[5-({(1R,2S)-1-(4H-1,3-benzodioxin-7-yl)-2-[(2,2-difluoropropanoyl)amino]propyl}oxy)-1H-indazol-1-yl]-N-[(1S,2S)-2-hydroxycyclopentyl]benzamide] | 0.552 | 3.44 | –
C[C@H](NC(=O)C(C)(F)F)[C@H](Oc1ccc2c(cnn2-c2cccc(C(=O)N[C@@H]3CCC[C@@H]3O)c2)c1)c1ccc2c(c1)OCOC2 [Example 14, 3-[5-({(1R,2S)-1-(4H-1,3-benzodioxin-7-yl)-2-[(2,2-difluoropropanoyl)amino]propyl}oxy)-1H-indazol-1-yl]-N-[(1R,2S)-2-hydroxycyclopentyl]benzamide] | 0.145 | 1.75 | –
C[C@H](NC(=O)C(C)(F)F)[C@H](Oc1ccc2c(cnn2-c2cccc(C(=O)N[C@@H]3CCC[C@@H]3O)c2)c1)c1ccc2c(c1)OCCO2 [Example 10, 3-(5-{[(1R,2S)-2-[(2,2-difluoropropanoyl)amino]-1-(2,3-dihydro-1,4-benzodioxin-6-yl)propyl]oxy}-1H-indazol-1-yl)-N-[(1R,2S)-2-hydroxycyclopentyl]benzamide] | 0.112 | 0.647 | –
C[C@H](NC(=O)C(C)(F)F)[C@H](Oc1ccc2c(cnn2-c2cccc(C(=O)NCc3ccccc3)c2)c1)c1ccc2c(c1)OCOC2 [Example 17, 3-[5-({(1R,2S)-1-(4H-1,3-benzodioxin-7-yl)-2-[(2,2-difluoropropanoyl)amino]propyl}oxy)-1H-indazol-1-yl]-N-benzylbenzamide] | 0.754 | 0.996 | –
C[C@H](NC(=O)C(C)(F)F)[C@H](Oc1ccc2c(cnn2-c2cccc(C(=O)N[C@@H]3CCS(=O)(=O)C3)c2)c1)c1ccc2c(c1)OCOC2 [Example 3, 3-[5-({(1R,2S)-1-(4H-1,3-Benzodioxin-7-yl)-2-[(2,2-difluoropropanoyl)amino]propyl}oxy)-1H-indazol-1-yl]-N-[(3R)-1,1-dioxidotetrahydrothiophen-3-yl]benzamide] | 0.344 | – | –
C[C@H](NC(=O)C(C)(F)F)[C@H](Oc1ccc2c(cnn2-c2cccc(C(=O)N[C@H]3CC[S+]([O-])C3)c2)c1)c1ccc2c(c1)OCOC2 (single isomer, unassigned) [Example 16] | – | 4.27 | 0.6
C[C@H](NC(=O)C(C)(F)F)[C@H](Oc1ccc2c(cnn2-c2cccc(C(=O)NC3CCCC3)c2)c1)c1ccc2c(c1)OCCO2 [Example 7, N-cyclopentyl-3-(5-{[(1R,2S)-2-[(2,2-difluoropropanoyl)amino]-1-(2,3-dihydro-1,4-benzodioxin-6-yl)propyl]oxy}-1H-indazol-1-yl)benzamide] | 0.163 | 1.3 | –
C[C@H](NC(=O)C(C)(F)F)[C@H](Oc1ccc2c(cnn2-c2cccc(C(=O)NC3CCCC3)c2)c1)c1ccc2c(c1)OCOC2 [Example 8, 3-[5-({(1R,2S)-1-(4H-1,3-benzodioxin-7-yl)-2-[(2,2-difluoropropanoyl)amino]propyl}oxy)-1H-indazol-1-yl]-N-cyclopentylbenzamide] | 0.388 | 0.796 | –
